Values quoted from earlier work in patent US10597315B2, “Method of disinfection of drinking water using ozone and silver cations” (KAUNO TECHNOLOGIJOS UNIVERSITETAS, priority 2015, dated 2020).

Key:
[1] = World Health Organization

For [Ag+] [silver], the “Silver in drinking water tolerable without any risk to health” value [1] is listed as “up to 0.1 mg/kg”, the “Ingested silver absorbed in the intestine” value is listed as 10% and the “Ingested silver excreted from the body via the faeces” value is listed as 90%.
